Results from patent US10800741B2 (ANCUREALL PHARMACEUTICAL (SHANGHAI) CO., LTD., priority 2017, dated 2020).

Tests used:
Type in all cases: cell-based, Human
[1] = system: Karpas 299 (NPM-ALK); assay: In vitro growth inhibition of Karpas 299 tumor cells (MTT/CCK8); conditions: Homo sapiens, KARPAS-299; in vitro growth inhibition (or induction of apoptosis), cells cultured 3 to 5 days, MTT (CCK8); read-out: IC50 Karpas 299 (NPM-ALK)
From the text: (§1) Tumor cell lines are an effective model for studying in vitro tumor growth inhibition. In the present invention, a representative tumor cell line was selected to determine the cell growth inhibition activity of the present compound. All cell lines used were from ATCC, DSMZ, and cell banks of the Chinese Academy of Sciences. Cell culture conditions and methods were in accordance with the requirements of each cell line. Cells were subcultured in vitro for no more than 3 generations each time, and as required, single-clone purification and identification of cell lines could be carried out.
(§2) The cell culture media used were RPMI1640 (Gibco), DMEM (Gibco), MEM (Gibco), L15 (Gibco), IMDM (Gibco), McCOY'S5A, and William's (Gibco). 5-20% fetal bovine serum (Gibco), 1% double antibiotic, 2 mM glutamine, or 1 mM sodium pyruvate were added. The names, species, major gene characteristics, culture media and cell sources of the cell lines used are shown in table 1, wherein “amp” refers to gene amplification. “+++” refers to gene overexpression. The main genetic characteristics of cells were obtained from the COSMIC Cell Lines Project and related research papers, respectively.
(§3) Adherent cells were digested with 0.25% trypsin-EDTA (Gibco). Suspension culture cells were collected by centrifugation (1700 rpm, 3 minutes). The supernatant was discarded and the cells were counted. According to each cell growth cycle, different concentrations of cells were prepared (5˜10×10^4 cells per ml), and inoculated to 96-well plates (Corning), with 100 μl per well, and incubated overnight at 37° C., 5% CO2. The next day, the test compound was added to the cultured cells (2 wells in parallel). The final concentration of the solvent was less than 1/1,000. The cells were further cultured for 3 to 5 days and assayed by MTT.
(§4) The compound was stored at a concentration of 10 mM at −20° C. and diluted to 2- or 10-fold series prior to use. BGJ398 and AC220 were synthesized according to the methods of WO2006420A1 and US2007232604A1, respectively.
(§5) The adherent cells were taken out from the cell culture medium, and immediately added to a freshly prepared complete medium containing 10% CCK8 (5% FBS), 100 ul per hole. The suspended cells were directly added to a CCK8 reagent until reaching a final concentration of 10% and cultured for 1 to 4 hours.
(§6) T=optical density of drug-treated cell wells−optical density of blank control wells; T0=optical density of cell wells before drug treatment−optical density of blank control wells; C=optical density of solvent control wells−optical density of blank control wells. […] The experiments were repeated 1 to 3 times and a statistical analysis of data was conducted.

[2] = system: Kasumi-1 (KIT N822K); assay: In vitro growth inhibition of Kasumi-1 tumor cells (MTT/CCK8); conditions: Homo sapiens, Kasumi 1; in vitro growth inhibition (or induction of apoptosis), cells cultured 3 to 5 days, MTT (CCK8); read-out: IC50 Kasumi-1 (KIT N822K)
From the text: as §1, §2, §3, §4, §5, §6

[3] = system: H1581 (FGFR1 amp); assay: In vitro growth inhibition of H1581 tumor cells (MTT/CCK8); conditions: Homo sapiens, NCI-H1581; in vitro growth inhibition (or induction of apoptosis), cells cultured 3 to 5 days, MTT (CCK8); read-out: IC50 H1581 (FGFR1 amp)
From the text: as §1, §2, §3, §4, §5, §6

[4] = system: Hep3B2 (FGFR3/4+++); assay: In vitro growth inhibition of Hep3B2 tumor cells (MTT/CCK8); conditions: Homo sapiens, Hep3B; in vitro growth inhibition (or induction of apoptosis), cells cultured 3 to 5 days, MTT (CCK8); read-out: IC50 Hep3B2 (FGFR3/4+++)
From the text: as §1, §2, §3, §4, §5, §6

[5] = system: KATO III (FGFR2 amp); assay: In vitro growth inhibition of KATO III tumor cells (MTT/CCK8); conditions: Homo sapiens, KATO III; in vitro growth inhibition (or induction of apoptosis), cells cultured 3 to 5 days, MTT (CCK8); read-out: IC50 KATO III (FGFR2 amp)
From the text: as §1, §2, §3, §4, §5, §6

[6] = system: KCL-22 (BCR-ABL); assay: In vitro growth inhibition of KCL-22 tumor cells (MTT/CCK8); conditions: Homo sapiens, KCL-22; in vitro growth inhibition (or induction of apoptosis), cells cultured 3 to 5 days, MTT (CCK8); read-out: IC50 KCL-22 (BCR-ABL)
From the text: as §1, §2, §3, §4, §5, §6

[7] = system: MOLM-13 (FLT3-ITD); assay: In vitro growth inhibition of MOLM-13 tumor cells (MTT/CCK8); conditions: Homo sapiens, MOLM-13; in vitro growth inhibition (or induction of apoptosis), cells cultured 3 to 5 days, MTT (CCK8); read-out: IC50 MOLM-13 (FLT3-ITD)
From the text: as §1, §2, §3, §4, §5, §6

[8] = system: H1703 (PDGFRa amp); assay: In vitro growth inhibition of H1703 tumor cells (MTT/CCK8); conditions: Homo sapiens, NCI-H1703; in vitro growth inhibition (or induction of apoptosis), cells cultured 3 to 5 days, MTT (CCK8); read-out: IC50 H1703 (PDGFRa amp)
From the text: as §1, §2, §3, §4, §5, §6

An IC50 [1] of 88.5 nM, an IC50 [2] of 129 nM and an IC50 [3] of 138 nM were found for COc1cc(Oc2ccnc3cc(OC)c(C(N)=O)cc23)ccc1NC(=O)n1nc(C(C)(C)C)cc1N [Compound 73, 4-{4-[(5-amino-3-tert-butyl-pyrazol-1-carbonyl)-amino]-3-methoxy-phenoxy}-7-methoxyquinolin-6-carboxamide] in this work. The IC50 [4] was 288 nM, the IC50 [5] was 265 nM and the IC50 [6] was 80.6 nM. It also gave an IC50 [7] of 197 nM and an IC50 [8] of 222 nM.
COc1cc2nccc(Oc3ccc(NC(=O)Nc4cc(C(C)(C)C)on4)c(Cl)c3)c2cc1C#N [Compound 19, 1-(5-tert-butyl-isoxazol-3-yl)-3-[2-chloro-4-(6-cyano-7-methoxy-quinolin-4-yloxy)-phenyl]-urea] was tested, and the IC50 [1] was > 1000 nM, the IC50 [2] was 131 nM and the IC50 [3] was 788 nM. For the same molecule, the IC50 [4] was > 1000 nM, the IC50 [5] was 46.8 nM and the IC50 [6] was 150 nM. For the same molecule, the IC50 [7] was 632 nM and the IC50 [8] was 172 nM.
COc1cc2nccc(Nc3ccc(NC(=O)Nc4cc(C(C)(C)C)n[nH]4)c(Cl)c3)c2cc1C(N)=O [Compound 79, 4-{4-[3-(5-tert-butyl-2H-pyrazol-3-yl)-ureido]-3-chlorophenylamino}-7-methoxyquinol in-6-carboxamide] was tested, and the IC50 [1] was > 1000 nM, the IC50 [2] was > 1000 nM and the IC50 [3] was 254 nM. For the same molecule, the IC50 [4] was 384 nM, the IC50 [5] was 19.9 nM and the IC50 [6] was > 1000 nM. The IC50 [7] was 107 nM and the IC50 [8] was 278 nM.
With COc1cc2nccc(Oc3ccc(NC(=O)Nc4cc(C(C)(C)C)on4)c(Cl)c3)c2cc1[N+](=O)[O-] [Compound 18, 1-(5-tert-butyl-isoxazol-3-yl)-3-[2-chloro-4-(7-methoxy-6-nitro-quinolin-4-yloxy)-phenyl]-urea] the IC50 [1] was > 1000 nM, the IC50 [2] was 59.6 nM and the IC50 [3] was 224 nM. It also gave an IC50 [4] of 638 nM, an IC50 [5] of 6.73 nM and an IC50 [6] of 83.6 nM. It also gave an IC50 [7] of 410 nM and an IC50 [8] of 68 nM.
An IC50 [1] of 851 nM, an IC50 [2] of 260 nM and an IC50 [3] of 92.9 nM were found for CN(C)CCOc1cc2nccc(Oc3ccc(NC(=O)Nc4cc(C(C)(C)C)n[nH]4)c(Cl)c3)c2cc1C(N)=O [Compound 83] in this work. For the same molecule, the IC50 [4] was 150 nM, the IC50 [5] was 5.94 nM and the IC50 [6] was 190 nM. The IC50 [7] was 15.3 nM and the IC50 [8] was 59.5 nM.
For COc1cc2nccc(Nc3ccc(NC(=O)Nc4cc(C(C)(C)C)on4)cc3C)c2cc1C(N)=O [Compound 99, 4-{4-[3-(5-tert-butyl-isoxazol-3-yl)-ureido]-2-methyl-phenylamino}-7-methoxy-quinolin-6-carboxamide], the IC50 [1] was > 1000 nM, the IC50 [2] was 355 nM and the IC50 [3] was 294 nM. It also gave an IC50 [4] of 862 nM, an IC50 [5] of 37.8 nM and an IC50 [6] of 264 nM. The IC50 [7] was 3.41 nM and the IC50 [8] was 128 nM.
An IC50 [1] of 756 nM, an IC50 [2] of 14.5 nM and an IC50 [3] of 13.2 nM were found for COc1cc2nccc(Oc3ccc(NC(=O)Nc4cc(C(C)(C)C)on4)c(C(F)(F)F)c3)c2cc1C(N)=O [Compound 4] in this work. The IC50 [4] was 27.8 nM, the IC50 [5] was 2.93 nM and the IC50 [6] was 10.4 nM. It also gave an IC50 [7] of 122 nM and an IC50 [8] of 21.8 nM.
In the case of COc1cc2nccc(Oc3ccc(NC(=O)Nc4cc(C(C)(C)C)on4)c(N4CCN(C)CC4)c3)c2cc1C(N)=O [Compound 10, 4-[4-[3-(5-tert-butyl-isoxazol-3-yl)-ureido]-3-(4-methyl-piperazin-1-yl)-phenoxy]-7-methoxyquinolin-6-carboxamide], the IC50 [1] is reported as > 1000 nM, the IC50 [2] is reported as 71.9 nM and the IC50 [3] is reported as > 1000 nM. The IC50 [4] was > 1000 nM, the IC50 [5] was > 1000 nM and the IC50 [6] was > 1000 nM. For the same molecule, the IC50 [7] was > 1000 nM and the IC50 [8] was > 1000 nM.
An IC50 [1] of 398 nM, an IC50 [2] of 88.9 nM and an IC50 [3] of 17.4 nM were found for CCC(=O)Nc1cc2c(Oc3ccc(NC(=O)Nc4cc(C(C)(C)C)on4)c(Cl)c3)ccnc2cc1OC [Compound 21, N-(4-{4-[3-(5-tert-butyl-isoxazol-3-yl)-ureido]-3-chloro-phenoxy}-7-methoxyquinolin-6-yl)-propionamide] in this work. For the same molecule, the IC50 [4] was 37.5 nM, the IC50 [5] was 2.8 nM and the IC50 [6] was 26.6 nM. For the same molecule, the IC50 [7] was 7.07 nM and the IC50 [8] was 157 nM.
With CCC(=O)N1CCC(NC(=O)Nc2ccc(Oc3ccnc4cc(OC)c(C(N)=O)cc34)cc2Cl)C1 (stereo not drawn) [Compound 69, 4-{3-chloro-4-[3-(1-propionyl-pyrrolidin-3-yl)-ureido]-phenoxy}-7-methoxyquinolin-6-carboxamide] the IC50 [1] was > 1000 nM, the IC50 [2] was > 1000 nM and the IC50 [3] was > 1000 nM. The IC50 [4] was > 1000 nM, the IC50 [5] was > 1000 nM and the IC50 [6] was > 1000 nM. The IC50 [7] was > 1000 nM and the IC50 [8] was > 1000 nM.
With CNC(=O)c1cc2c(Oc3ccc(NC(=O)Nc4cc(C(C)(C)C)n[nH]4)c(C)c3)ccnc2cc1OC [Compound 49, 4-{4-[3-(5-tert-butyl-2H-pyrazol-3-yl)-ureido]-3-methyl-phenoxy}-7-methoxyquinolin-6-carboxylate acid methylamide] the IC50 [1] was > 1000 nM, the IC50 [2] was 100 nM and the IC50 [3] was 63.1 nM. For the same molecule, the IC50 [4] was 93.1 nM, the IC50 [5] was 2.93 nM and the IC50 [6] was 31.2 nM. The IC50 [7] was 18.1 nM and the IC50 [8] was 15.4 nM.
COc1cc2nccc(Oc3ccc(NC(=O)Nc4cc(C(C)(C)C)n[nH]4)cn3)c2cc1NC(C)=O [Compound 104, N-(4-{5-[3-(5-tert-butyl-2H-pyrazol-3-yl)-ureido]-pyridin-2-yloxy}-7-methoxy-quinolin-6-yl)-acetamide] was tested, and the IC50 [1] was 768 nM, the IC50 [2] was > 1000 nM and the IC50 [3] was 160 nM. For the same molecule, the IC50 [4] was 526 nM, the IC50 [5] was 40.1 nM and the IC50 [6] was > 1000 nM. It also gave an IC50 [7] of 1.17 nM and an IC50 [8] of 163 nM.
An IC50 [1] of 736 nM, an IC50 [2] of 132 nM and an IC50 [3] of 35.8 nM were found for COc1cc2nccc(Oc3ccc(NC(=O)Nc4cc(C(C)(C)C)nn4CCO)c(Cl)c3)c2cc1C(N)=O [Compound 32, 4-(4-{3-[5-tert-butyl-2-(2-hydroxy-ethyl)-2H-pyrazol-3-yl]-ureido}-3-chloro-phenoxy)-7-methoxyquinolin-6-carboxamide] in this work. For the same molecule, the IC50 [4] was 56.6 nM, the IC50 [5] was 0.18 nM and the IC50 [6] was 163 nM. The IC50 [7] was 17.1 nM and the IC50 [8] was 73.2 nM.
An IC50 [1] of 178 nM, an IC50 [2] of 8.29 nM and an IC50 [3] of 210 nM were found for CN(C)CCOc1cc2nccc(Oc3ccc(NC(=O)Nc4cc(C(C)(C)C)n[nH]4)c(Cl)c3Cl)c2cc1C(N)=O [Compound 93, 4-{4-[3-(5-tert-butyl-2H-pyrazol-3-yl)-ureido]-2,3-dichloro-phenoxy}-7-(2-dimethylamino-ethoxy)carboxamide] in this work. For the same molecule, the IC50 [4] was 9.84 nM, the IC50 [5] was 3.53 nM and the IC50 [6] was 6.12 nM. It also gave an IC50 [7] of 10.3 nM and an IC50 [8] of 79.3 nM.
An IC50 [1] of 749 nM, an IC50 [2] of 182 nM and an IC50 [3] of 146 nM were found for CC(C)(C)c1cc(NC(=O)Nc2ccc(Oc3ccnc4cc(O)c(C(N)=O)cc34)c(Cl)c2Cl)[nH]n1 [Compound 92, 4-{4-[3-(5-tert-butyl-2H-pyrazol-3-yl)-ureido]-2,3-dichloro-phenoxy}-7-hydroxy-quinolin-6-carboxamide] in this work. For the same molecule, the IC50 [4] was 232 nM, the IC50 [5] was 17.5 nM and the IC50 [6] was 67.5 nM. For the same molecule, the IC50 [7] was 28.9 nM and the IC50 [8] was 453 nM.
